Laboratory results as given in patent US7307097B2, “Chemical compounds” (SmithKline Beechman Corporation, priority 2001, dated 2007).

What follows are compounds tested against Recombinant GST-Tie2 (Homo sapiens, UniProt Q02763) (assay: Tie2 fluorescence polarization kinase activity assay (TIE2-FP)). Conditions: 200 μM ATP, activated enzyme; read-out: TIE2-FP pIC50 (converted).
Assay type: biochemical
Experimental: Tie2 Fluorescence Polarization Kinase Activity Assay (TIE2-FP) Activation of Recombinant Tie2 Activation: Recombinant GST-Tie2 is activated by incubating the enzyme in 20 mM Tris-HCl, pH7.5, 12 mM MgCl2, 100 mM NaCl, 20 μM sodium vanidate, 1 mM DTT and 300 μM ATP at room temperature for 2 hours. The activation mixture is then passed through a NAP-25 desalting column (Pharmacia Biotech cat. no. 17-0852-02) to remove the free ATP. The activated enzyme is stored as aliquots at−80° C. in 20mM Tris-HCl, pH7.5 and 100 mM NaCl. Assay Conditions: The final assay conditions are 50 mM HEPES, pH7.5, 5% DMSO (when screening compounds), 200 μM ATP, 5mM MgCl2, 1 mM DTT, 50 μM sodium vanidate, 1 nM activated enzyme, and 200 μM peptide. IC50's of compounds are measured under subsaturating ATP (200 μM) and varing concentrations of activated Tie2 and peptide substrate (RFWKYEFWR-OH; MW 1873 Da, TFA salt). Panvera Anti-phosphotyrosine antibody (Cat#P2840) and PTK Green Tracer (Cat#P2842) are used to detect the phosphorylated peptide. Polarization is measured on a TECAN Polarion in 138-second cycles for 30 minutes at room temperature. IC50's are then determined from the % polarization using normal calculation methods. The IC50 values are converted to pIC50 values, i.e.,−log IC50 in Molar concentration.

Recombinant GST-Tie2, sequence (Q02763 23-1124): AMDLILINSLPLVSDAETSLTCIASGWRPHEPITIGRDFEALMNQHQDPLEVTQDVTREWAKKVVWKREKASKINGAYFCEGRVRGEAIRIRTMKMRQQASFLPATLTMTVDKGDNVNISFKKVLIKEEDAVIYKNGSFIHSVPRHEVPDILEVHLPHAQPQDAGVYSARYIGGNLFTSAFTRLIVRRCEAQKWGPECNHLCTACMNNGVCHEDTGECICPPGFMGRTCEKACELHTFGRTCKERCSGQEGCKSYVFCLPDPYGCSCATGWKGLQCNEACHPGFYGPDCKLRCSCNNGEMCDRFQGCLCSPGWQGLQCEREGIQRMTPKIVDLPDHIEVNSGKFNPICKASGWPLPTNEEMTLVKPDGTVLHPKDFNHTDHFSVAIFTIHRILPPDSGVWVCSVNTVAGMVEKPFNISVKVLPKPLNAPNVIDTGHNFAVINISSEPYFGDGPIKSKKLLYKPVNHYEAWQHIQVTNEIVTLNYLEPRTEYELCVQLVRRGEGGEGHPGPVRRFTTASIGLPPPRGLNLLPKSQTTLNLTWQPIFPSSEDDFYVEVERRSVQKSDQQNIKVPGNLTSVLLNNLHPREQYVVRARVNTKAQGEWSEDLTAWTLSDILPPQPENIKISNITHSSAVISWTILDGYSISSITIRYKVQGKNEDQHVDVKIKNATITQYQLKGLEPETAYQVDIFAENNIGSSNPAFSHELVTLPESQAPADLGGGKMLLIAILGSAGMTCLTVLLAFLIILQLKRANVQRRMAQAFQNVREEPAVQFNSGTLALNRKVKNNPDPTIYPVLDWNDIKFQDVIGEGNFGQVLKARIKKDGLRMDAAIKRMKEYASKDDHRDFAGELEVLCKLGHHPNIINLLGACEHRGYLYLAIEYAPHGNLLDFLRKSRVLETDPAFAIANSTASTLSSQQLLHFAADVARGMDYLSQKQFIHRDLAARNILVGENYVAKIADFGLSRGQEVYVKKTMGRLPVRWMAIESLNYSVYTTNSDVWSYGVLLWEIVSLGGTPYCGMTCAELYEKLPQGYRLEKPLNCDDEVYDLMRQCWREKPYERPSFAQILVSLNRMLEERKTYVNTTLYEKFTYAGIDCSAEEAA

| Structure (SMILES) | IC50 [nM] |
| --- | --- |
| Cn1nc(-c2ccc(NC(=O)Nc3cccc(Cl)c3)cc2)c(C(N)=O)c1N [Example 6, 5-Amino-3-{4-[3-(3-chloro-phenyl)-ureido]-phenyl}-1-methyl-1H-pyrazole-4-carboxylic acid amide] | 1000 to 10000 |
| CC(C)(C)n1nc(-c2ccc(NC(=O)Nc3cc(C(F)(F)F)cc(C(F)(F)F)c3)cc2)c(C(N)=O)c1N [Example 19, 5-Amino-3-{4-[3-(bis-3,5-trifluoromethyl-phenyl)-ureido]-phenyl}-1-tert-butyl-1H-pyrazole-4-carboxylic acid amide] | < 100 |
| CC(C)(C)n1nc(-c2ccc(NC(=O)Nc3cc(C(F)(F)F)ccc3Cl)cc2)c(C(N)=O)c1N [Example 18, 5-Amino-1-tert-butyl-3-{4-[3-(2-chloro-5-trifluoromethyl-phenyl)-ureido]-phenyl}-1H-pyrazole-4-carboxylic acid amide] | < 100 |
| Cn1nc(-c2ccc(NC(=O)Nc3ccc4ccccc4c3)cc2)c(C(N)=O)c1N [Example 5, 5-Amino-1-methyl-3-[4-(3-naphthalen-2-yl-ureido)-phenyl]-1H-pyrazole-4-carboxylic acid amide] | 100 to 1000 |
| Cn1nc(-c2ccc(NC(=O)Nc3cc(F)ccc3F)cc2)c(C(N)=O)c1N [Example 15, 5-Amino-3-{4-[3-(2,5-difluoro-phenyl)-ureido]-phenyl}-1-methyl-1H-pyrazole-4-carboxylic acid amide] | 1000 to 10000 |
| Cn1nc(-c2ccc(NC(=O)Nc3cc(C(F)(F)F)cc(C(F)(F)F)c3)cc2)c(C(N)=O)c1N [Example 4, 5-Amino-3-{4-[3-(bis-3,5-trifluoromethyl-phenyl)-ureido]-phenyl}-1-methyl-1H-pyrazole-4-carboxylic acid amide] | 100 to 1000 |
| Cn1nc(-c2ccc(NC(=O)Nc3cc(C(F)(F)F)ccc3Cl)cc2)c(C(N)=O)c1N [Example 3, 5-Amino-3-{4-[3-(2-chloro-5-trifluoromethyl-phenyl)-ureido]-phenyl}-1-methyl-1H-pyrazole-4-carboxylic acid amide] | < 100 |
| CC(C)(C)n1nc(-c2ccc(NC(=O)Nc3cccc(C(F)(F)F)c3)cc2)c(C(N)=O)c1N [Example 24, 5-Amino-1-tert-butyl-3-{4-[3-(3-trifluoromethyl-phenyl)-ureido]-phenyl}-1H-pyrazole-4-carboxylic acid amide] | < 100 |
| Cn1nc(-c2ccc(NC(=O)Nc3cccc4ccccc34)cc2)c(C(N)=O)c1N [Example 8, 5-Amino-1-methyl-3-[4-(3-naphthalen-1-yl-ureido)-phenyl]-1H-pyrazole-4-carboxylic acid amide] | 1000 to 10000 |
| Cn1nc(-c2ccc(NC(=O)Nc3cc(Cl)ccc3Cl)cc2)c(C(N)=O)c1N [Example 7, 5-Amino-3-{4-[3-(2,5-dichloro-phenyl)-ureido]-phenyl}-1-methyl-1H-pyrazole-4-carboxylic acid amide] | < 100 |
| Cn1nc(-c2ccc(NC(=O)Nc3cc(C(F)(F)F)ccc3F)cc2)c(C(N)=O)c1N [Example 2, 5-Amino-3-{4-[3-(2-fluoro-5-trifluoromethyl-phenyl)-ureido]-phenyl}-1-methyl-1H-pyrazole-4-carboxylic acid amide] | < 100 |
| Cn1nc(-c2ccc(NC(=O)Nc3ccc(-c4ccccc4)cc3)cc2)c(C(N)=O)c1N [Example 10, 5-Amino-3-[4-(3-biphenyl4-yl-ureido)-phenyl]-1-methyl-1H-pyrazole-4-carboxylic acid amide] | 100 to 1000 |
| CC(C)(C)n1nc(-c2ccc(NC(=O)Nc3c(F)cccc3F)cc2)c(C(N)=O)c1N [Example 26, 5-Amino-1-tert-butyl-3-{4-[3-(2,6-difluoro-phenyl)-ureido]-phenyl}-1H-pyrazole-4-carboxylic acid amide] | 1000 to 10000 |
| CC(C)(C)n1nc(-c2ccc(NC(=O)Nc3cccc4ccccc34)cc2)c(C(N)=O)c1N [Example 20, 5-Amino-1-tert-butyl-3-[4-(3-naphthalen-1-yl-ureido)-phenyl]-1H-pyrazole-4-carboxylic acid amide] | 100 to 1000 |
